The results in this text go back to publication PMC9215129, “An acetyltransferase controls the metabolic flux in rubromycin polyketide biosynthesis by direct modulation of redox tailoring enzymes” (Chemical Science, 2022).

SMILES strings stand for the structures.

The target in test [1] is T1, GrhO6 (Streptomyces sp. JP95, UniProt Q8KSX5, K425M).
T1 construct: recombinant, purified; group A FAD monooxygenase; acetylated at K5 by HyalJ in some assays
In words: HPLC assay, 5a/5b formation. Format: biochemical. The conditions noted are these: with HyalJ; activity similar to wild type; substrate not named explicitly for the variant.

The target of test [2] is T2, GrhO6 (Streptomyces sp. JP95, UniProt Q8KSX5).
T2 construct: recombinant, purified; group A FAD monooxygenase; acetylated at K5 by HyalJ in some assays
T2 sequence (Q8KSX5 1-520): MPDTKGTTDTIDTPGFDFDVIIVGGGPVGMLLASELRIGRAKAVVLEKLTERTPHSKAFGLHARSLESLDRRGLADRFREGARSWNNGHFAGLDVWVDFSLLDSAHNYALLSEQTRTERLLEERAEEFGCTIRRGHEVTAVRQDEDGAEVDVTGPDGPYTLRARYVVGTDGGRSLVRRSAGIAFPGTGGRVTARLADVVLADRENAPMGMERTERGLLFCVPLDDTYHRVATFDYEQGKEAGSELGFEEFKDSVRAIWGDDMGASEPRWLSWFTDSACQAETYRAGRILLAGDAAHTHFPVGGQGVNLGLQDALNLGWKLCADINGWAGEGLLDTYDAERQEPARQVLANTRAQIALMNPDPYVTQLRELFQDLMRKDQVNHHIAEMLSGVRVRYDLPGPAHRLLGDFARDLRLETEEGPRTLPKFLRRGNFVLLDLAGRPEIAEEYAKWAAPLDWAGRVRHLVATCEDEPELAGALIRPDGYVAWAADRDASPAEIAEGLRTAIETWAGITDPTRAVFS
In words: HPLC time course in cascade. The conditions noted are these: NADPH, GrhO5, GrhO1, with HyalJ; 4a generated in situ from 3b. Format: biochemical.

Test [3] addresses T3, GrhO10 (Streptomyces sp. JP95, UniProt Q8KSW1).
T3 construct: recombinant from E. coli, Ni-NTA purified (His-tag)
T3 sequence (Q8KSW1 1-249): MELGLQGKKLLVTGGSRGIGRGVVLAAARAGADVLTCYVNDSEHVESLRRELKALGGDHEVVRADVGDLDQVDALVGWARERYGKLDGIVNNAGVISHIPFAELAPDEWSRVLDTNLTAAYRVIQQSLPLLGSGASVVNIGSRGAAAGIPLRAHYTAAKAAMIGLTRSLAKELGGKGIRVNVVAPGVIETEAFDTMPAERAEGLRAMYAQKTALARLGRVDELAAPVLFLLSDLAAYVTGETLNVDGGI
In words: HPLC, UPLC-HRMS/MS of product […]. Format: biochemical. Particulars: 4a/4b generated in situ by cascade (GrhO5, GrhO1, NADPH); redox form not resolved; low turnover.

Test [4] deals with T4, GrhO6 (Streptomyces sp. JP95, UniProt Q8KSX5, K57M).
T4 construct: recombinant, purified; group A FAD monooxygenase; acetylated at K5 by HyalJ in some assays
In words: HPLC assay, 5a/5b formation. In kind it is biochemical. Particulars: with HyalJ; activity similar to wild type; substrate not named explicitly for the variant.

Test [5] addresses T2, GrhO6. In words: turnover before digest and UPLC-HRMS. In kind it is biochemical. Particulars: with AcCoA and HyalJ.
The target in test [6] is T5, HyalO10 (Streptomyces hyaluromycini, UniProt Z9NP16K308).
T5 construct: heterologously produced and purified; hyaluromycin gene cluster, homologue of GrhO10
T5 sequence (Z9NP16K308 1-249): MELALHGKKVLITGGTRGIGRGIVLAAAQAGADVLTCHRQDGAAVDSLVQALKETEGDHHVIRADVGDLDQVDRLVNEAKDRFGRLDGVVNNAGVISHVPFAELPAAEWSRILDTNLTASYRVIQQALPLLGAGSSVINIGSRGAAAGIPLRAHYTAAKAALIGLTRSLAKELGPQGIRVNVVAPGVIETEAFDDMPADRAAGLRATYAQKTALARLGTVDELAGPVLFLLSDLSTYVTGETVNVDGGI
In words: HPLC coupled cascade assay, 6a/6b formation. Format: biochemical. The conditions noted are these: 5a/5b generated in situ (GrhO5, GrhO1, GrhO6, HyalJ, NADPH); redox form not resolved.

Test [7] concerns the target T3, GrhO10. In words: HPLC time course of 6b formation. The conditions noted are these: isolated 5b. Format: biochemical.
The target in test [8] is T6, HyalJ (Streptomyces hyaluromycini, UniProt Z9LXF2D8B5).
T6 construct: recombinant from E. coli, N-terminal GB1 solubility tag; GNAT, homologue of GrhJ
T6 sequence (Z9LXF2D8B5 1-325): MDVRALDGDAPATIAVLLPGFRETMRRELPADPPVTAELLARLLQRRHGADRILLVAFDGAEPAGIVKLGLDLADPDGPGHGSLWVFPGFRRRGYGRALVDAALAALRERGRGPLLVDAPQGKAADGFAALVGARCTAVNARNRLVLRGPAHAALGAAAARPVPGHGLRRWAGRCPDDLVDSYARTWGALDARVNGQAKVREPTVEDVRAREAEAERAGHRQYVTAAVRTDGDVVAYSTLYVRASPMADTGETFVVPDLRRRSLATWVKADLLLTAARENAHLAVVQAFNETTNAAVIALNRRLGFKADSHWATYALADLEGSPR
In words: co-purification from E. coli, UPLC-HRMS of released ligand. Format: binding. The conditions noted are these: acyl donor.

In test [9] the target is T2, GrhO6. In words: HPLC enzyme assay. In kind it is biochemical. Particulars: inhibitor of turnover of 4a(b); 8 produced in situ, its structure only inferred from MS.
The mark [10] stands for this setting: equal effect to AcCoA with apo HyalJ.

T1 sequence (Q8KSX5 entry or part of it K425M): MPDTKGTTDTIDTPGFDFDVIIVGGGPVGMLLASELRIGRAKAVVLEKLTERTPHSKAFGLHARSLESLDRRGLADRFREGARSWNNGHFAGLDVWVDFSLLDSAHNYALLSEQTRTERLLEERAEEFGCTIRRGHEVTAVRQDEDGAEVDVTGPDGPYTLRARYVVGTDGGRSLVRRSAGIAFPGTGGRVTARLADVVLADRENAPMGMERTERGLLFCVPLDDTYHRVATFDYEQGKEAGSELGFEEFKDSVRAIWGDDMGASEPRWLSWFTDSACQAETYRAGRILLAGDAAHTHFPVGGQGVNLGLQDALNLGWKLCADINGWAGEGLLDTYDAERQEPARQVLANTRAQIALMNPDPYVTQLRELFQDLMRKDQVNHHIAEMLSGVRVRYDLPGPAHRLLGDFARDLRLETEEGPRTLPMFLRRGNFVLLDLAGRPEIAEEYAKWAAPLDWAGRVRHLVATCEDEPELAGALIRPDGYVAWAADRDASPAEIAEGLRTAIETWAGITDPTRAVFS
T4 sequence (Q8KSX5 entry or part of it K57M): as the sequence (Q8KSX5 entry or part of it K425M) above, with K57M, M425K counted along it

As to `COc1cc(O)c2c(O)c3c(c(O)c2c1O)C(=O)OC1(CCc2cc4cc(C)oc(=O)c4c(O)c2O1)C3=O` (centres unmarked) [4a, dihydrolenticulone], the “HPLC assay, 5a/5b formation” value in [1] and in test [4] was “both were able to mediate the generation of 5a/5b in the presence of HyalJ” each time. Besides, the “HPLC time course in cascade” value in test [2] is “Compound 4a is then further converted into 5a/5b”. Further, in test [3], the “HPLC, UPLC-HRMS/MS of product 8” value is recorded as “ketoreductases are also capable of catalyzing keto reduction of 4a/4b”. `COC1=CC(=O)c2c(O)c3c(c(O)c2C1=O)C(=O)OC1(CCc2cc4cc(C)oc(=O)c4c(O)c2O1)C3=O` (centres unmarked) [4b, lenticulone]: in test [5], the “turnover before digest and UPLC-HRMS” value was “GrhO6 after turnover of 4b in the presence of AcCoA and HyalJ”. Consider `COc1cc(O)c2c(O)c3c(c(O)c2c1O)OC1(CCc2cc4cc(C)oc(=O)c4c(O)c2O1)C3=O` (centres unmarked) [5a, dihydro-7,8-dideoxy-6-oxo-griseorhodin C], for which the “HPLC coupled cascade assay, 6a/6b formation” value in test [6] is on record as “When GrhO10 was substituted for HyalO10 in the enzymatic assays, 6a/6b was formed”. For `COC1=CC(=O)c2c(O)c3c(c(O)c2C1=O)OC1(CCc2cc4cc(C)oc(=O)c4c(O)c2O1)C3=O` (centres unmarked) [5b, 7,8-dideoxy-6-oxo-griseorhodin C], the “HPLC time course of 6b formation” value in test [7] is “the enzymatic formation of 6b was clearly observed in the presence of GrhO10”. With `CC(=O)SCCNC(=O)CCNC(=O)[C@H](O)C(C)(C)COP(=O)(O)OP(=O)(O)OC[C@H]1O[C@@H](n2cnc3c(N)ncnc32)[C@H](O)[C@@H]1OP(=O)(O)O` [acetyl-CoA], the “co-purification from E. coli, UPLC-HRMS of released ligand” value (“co-purification from E. coli, UPLC-HRMS” for short) in [8] (acetylates GrhO6 at K5, restores activity of apo HyalJ) is reported as “which clearly confirmed the presence of AcCoA”. In the case of `COc1cc(O)c2c(O)c3c(c(O)c2c1O)C(=O)OC1(CCc2cc4cc(C)oc(=O)c4c(O)c2O1)C3O` (centres unmarked) [compound 8, 8], in test [9], the HPLC enzyme assay result is recorded as “GrhO6 showed strongly decreased activity on 4a(b) even in the presence of only small amounts”. In the case of `CC(C(=O)O)C(=O)SCCNC(=O)CCNC(=O)[C@H](O)C(C)(C)COP(=O)(O)OP(=O)(O)OC[C@H]1O[C@@H](n2cnc3c(N)ncnc32)[C@H](O)[C@@H]1OP(=O)(O)O` (some centres unmarked) [methylmalonyl-CoA], the “co-purification from E. coli, UPLC-HRMS” value in test [8] (setting [10]) is “also with almost identical amounts of propionyl-CoA and methylmalonyl-CoA”. For `CCC(=O)SCCNC(=O)CCNC(=O)[C@H](O)C(C)(C)COP(=O)(O)OP(=O)(O)OC[C@H]1O[C@@H](n2cnc3c(N)ncnc32)[C@H](O)[C@@H]1OP(=O)(O)O` [propionyl-CoA], the “co-purification from E. coli, UPLC-HRMS” value in test [8] (setting [10]) is “also with almost identical amounts of propionyl-CoA and methylmalonyl-CoA”.
